In ChEMBL document CHEMBL5500378, “Discovery of 4-benzylpiperazinequinoline BChE inhibitor that suppresses neuroinflammation for the treatment of Alzheimer's disease” (Eur J Med Chem, 2024):
The source made the active and inactive calls. The calls are words filed in the database; no cut-off is given here.

Columns and labels:
L02 = assay: Cytotoxicity against human L02 cells by MTT assay; type: toxicity, cell-based
[1] = Cmax in Sprague-Dawley rat at 10 mg/kg, iv measured for 2880 mins by LC-MS/MS analysis; type: ADME, organism-based; conditions: in vivo
Mus musculus [2] = assay: Anti-inflammatory activity in ICR mouse model assessed as shorter platform latency at 10 mg/kg, IG pretreated for 10 days followed by LPS treatment for 4 days by Moris water maze test; type: functional, organism-based; conditions: time 14.0 day
[3] = Half life in brain of ICR mouse at 10 mg/kg, IG measured at 10 to 240 mins by LC-MS/MS analysis; type: ADME, organism-based; conditions: po, time 10-240 min
[4] = Tmax in Sprague-Dawley rat at 10 mg/kg, IG measured for 2880 mins by LC-MS/MS analysis; type: ADME, organism-based; conditions: in vivo, po
PC-12 = assay: Neuroprotective activity against H2O2-induced neuronal damage in rat PC12 cells assessed as increase in cell viability pretreated for 1 hr followed by H2O2 addition measured after 24 hrs by MTT assay; type: functional, cell-based; conditions: dose <= 20.0 µM, time 25.0 hrs
[5] = Tmax in plasma of ICR mouse at 10 mg/kg, IG measured at 10 to 240 mins by LC-MS/MS analysis; type: ADME, organism-based; conditions: in vivo, po, time 10-240 min
Mus musculus [6] = assay: Improvement of cognition in ICR mouse model of Amyloid beta(1 to 42)-induced cognitive impairment at 10 mg/kg, IG for 12 days by Moris water maze test; type: functional, organism-based; conditions: time 12.0 day
[7] = Tmax in brain of ICR mouse at 10 mg/kg, IG measured at 10 to 240 mins by LC-MS/MS analysis; type: ADME, organism-based; conditions: po, time 10-240 min
[8] = MRT (infinity) in Sprague-Dawley rat at 10 mg/kg, IG measured for 2880 mins by LC-MS/MS analysis; type: ADME, organism-based; conditions: in vivo, po
Mus musculus [9] = assay: Anti-inflammatory activity in ICR mouse model assessed as reduction in brain TNF-alpha level at 10 mg/kg, IG pretreated for 10 days followed by LPS treatment for 4 days by ELISA; type: functional, organism-based; conditions: time 14.0 day
Mus musculus [10] = assay: Improvement of learning ability in ICR mouse model of Amyloid beta(1 to 42)-induced cognitive impairment at 10 mg/kg, IG for 12 days by Moris water maze test; type: functional, organism-based; conditions: time 12.0 day
Cholinesterase = Cholinesterase (Equus caballus, UniProt P81908); assay: Inhibition of equine serum BChE using BTC as substrate incubated for 2 mins by Ellman's method; type: cell-free
[11] = AUC (0 to t) in brain of ICR mouse at 10 mg/kg, IG measured at 10 to 240 mins by LC-MS/MS analysis; type: ADME, organism-based; conditions: po, time 10-240 min
[12] = AUC (0 to infinity) in Sprague-Dawley rat at 10 mg/kg, iv measured for 2880 mins by LC-MS/MS analysis; type: ADME, organism-based; conditions: in vivo
[13] = Oral bioavailability in Sprague-Dawley rat at 10 mg/kg, IG or 10 mg/kg, iv measured for 2880 mins by LC-MS/MS analysis; type: ADME, organism-based; conditions: in vivo
Mus musculus [14] = assay: Anti-inflammatory activity in ICR mouse model assessed as reversal of LPS-induced body weight loss at 10 mg/kg, IG pretreated for 10 days followed by LPS treatment for 4 days; type: functional, organism-based; conditions: time 14.0 day
[15] = Cmax in Sprague-Dawley rat at 10 mg/kg, IG measured for 2880 mins by LC-MS/MS analysis; type: ADME, organism-based; conditions: in vivo, po
BV-2 [16] = assay: Inhibition of ROS production in LPS-induced mouse BV-2 cells assessed as decrease in green fluorescence intensity at 2.5 to 10 uM pretreated for 1 hr followed by LPS addition and incubated overnight by DCFH-DA staining based analysis; type: functional, cell-based; conditions: dose 2.5-10 µM
Mus musculus [17] = assay: Anti-inflammatory activity in ICR mouse model assessed as reduction in trajectory confusion at 10 mg/kg, IG pretreated for 10 days followed by LPS treatment for 4 days by Moris water maze test; type: functional, organism-based; conditions: time 14.0 day
Mus musculus [18] = assay: Neuroprotective activity in ICR mouse model of Amyloid beta(1 to 42)-induced cognitive impairment assessed as increase in AChE expression in brain at 10 mg/kg, IG for 12 days by ELISA; type: functional, organism-based; conditions: time 12.0 day
[19] = Drug concentration in brain of ICR mouse at 10 mg/kg, IG measured at about 22 mins by LC-MS/MS analysis; type: ADME, organism-based; conditions: po, read-out: Ct
[20] = Neurotoxicity against human SH-SY5Y cells by MTT assay; type: toxicity, cell-based
BV-2 [21] = assay: Anti-inflammatory activity against mouse BV-2 cells assessed as decrease in LPS-induced IFN-gamma level at 2 to 6 uM preincubated for 1 hr followed by LPS addition and incubated overnight by ELISA; type: functional, cell-based; conditions: dose 2-6 µM
Mus musculus [22] = assay: Anti-inflammatory activity in ICR mouse model assessed as reduction in serum IL-1beta level at 10 mg/kg, IG pretreated for 10 days followed by LPS treatment for 4 days by ELISA; type: functional, organism-based; conditions: time 14.0 day
[23] = test system: Antioxidant response element; assay: Induction of ARE in human HepG2-ARE-C8 cells incubated for 24 hrs by luciferase based assay; type: cell-based; conditions: HepG2-ARE-C8, 24 h
Mus musculus [24] = assay: Neuroprotective activity in ICR mouse model of Amyloid beta(1 to 42)-induced cognitive impairment assessed as decrease in Amyloid beta expression in brain at 10 mg/kg, IG for 12 days by ELISA; type: functional, organism-based; conditions: time 12.0 day
SH-SY5Y = assay: Neuroprotective activity against Amyloid beta(1 to 42)-induced neuronal damage in human SH-SY5Y cells assessed as increase in cell survival at 1 to 10 uM pretreated for 1 hr followed by Amyloid beta(1 to 42) addition measured after 24 hrs by MTT assay; type: functional, cell-based; conditions: dose 1-10 µM, time 25.0 hrs
[25] = Tmax in Sprague-Dawley rat at 10 mg/kg, iv measured for 2880 mins by LC-MS/MS analysis; type: ADME, organism-based; conditions: in vivo
[26] = AUC (0 to t) in Sprague-Dawley rat at 10 mg/kg, iv measured for 2880 mins by LC-MS/MS analysis; type: ADME, organism-based; conditions: in vivo
Mus musculus [27] = assay: Anti-inflammatory activity in ICR mouse model assessed as reduction in serum TNF-alpha level at 10 mg/kg, IG pretreated for 10 days followed by LPS treatment for 4 days by ELISA; type: functional, organism-based; conditions: time 14.0 day
[28] = Ratio of Cmax in brain to plasma of ICR mouse at 10 mg/kg, IG measured at 10 to 240 mins by LC-MS/MS analysis; type: ADME, organism-based; conditions: po, time 10-240 min
[29] = AUC (0 to t) in plasma of ICR mouse at 10 mg/kg, IG measured at 10 to 240 mins by LC-MS/MS analysis; type: ADME, organism-based; conditions: in vivo, po, time 10-240 min
[30] = AUC (0 to infinity) in Sprague-Dawley rat at 10 mg/kg, IG measured for 2880 mins by LC-MS/MS analysis; type: ADME, organism-based; conditions: in vivo, po
[31] = Toxicity in ICR mouse assessed as abnormal behaviour administered orally; conditions: in vivo, po
[32] = Neurotoxicity against rat PC12 cells by MTT assay; type: toxicity, cell-based; conditions: pc-12
Mus musculus [33] = assay: Anti-inflammatory activity in ICR mouse model assessed as reduction in brain IL-1beta level at 10 mg/kg, IG pretreated for 10 days followed by LPS treatment for 4 days by ELISA; type: functional, organism-based; conditions: time 14.0 day

Cholinesterase, sequence (P81908 whole entry): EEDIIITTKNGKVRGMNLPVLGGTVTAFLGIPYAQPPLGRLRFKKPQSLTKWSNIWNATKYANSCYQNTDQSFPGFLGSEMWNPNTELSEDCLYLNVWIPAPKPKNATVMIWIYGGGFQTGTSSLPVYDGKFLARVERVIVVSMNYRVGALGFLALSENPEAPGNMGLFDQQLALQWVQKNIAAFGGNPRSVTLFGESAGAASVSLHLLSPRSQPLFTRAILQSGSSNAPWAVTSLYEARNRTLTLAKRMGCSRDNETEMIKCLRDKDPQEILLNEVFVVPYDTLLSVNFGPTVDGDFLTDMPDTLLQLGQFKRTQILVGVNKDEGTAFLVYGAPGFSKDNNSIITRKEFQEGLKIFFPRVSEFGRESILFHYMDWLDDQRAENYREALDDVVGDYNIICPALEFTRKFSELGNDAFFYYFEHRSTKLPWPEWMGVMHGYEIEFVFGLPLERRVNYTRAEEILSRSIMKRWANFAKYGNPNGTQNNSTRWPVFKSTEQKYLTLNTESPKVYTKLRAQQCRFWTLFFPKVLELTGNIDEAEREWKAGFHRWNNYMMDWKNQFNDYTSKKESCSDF

With CCCc1ccc(C(=O)Nc2cnc3ccccc3c2N2CCN(Cc3ccccc3)CC2)cc1 the Activity (L02) was “Non-Toxic”, the Cmax [1] was 7120 ng/mL and the Activity (Mus musculus [2]) was “Active”. The half-life [3] was 1.6 h, the Tmax [4] was 1 h and the Activity (PC-12) was “Dose-Dependent Effect”. The Tmax [5] was 0.3 h, the Activity (Mus musculus [6]) was “Active” and the Tmax [7] was 0.367 h. The MRT inf [8] was 17.8 h, the Activity (Mus musculus [9]) was “Active” and the Activity (Mus musculus [10]) was “Active”. For the same compound, the IC50 (Cholinesterase) was 0.06 µM, the AUC(0-t) [11] was 38300 ng·h/mL and the AUC(0-inf) [12] was 6070 ng·h/mL. For the same compound, the bioavailability [13] was 92.3%, the Activity (Mus musculus [14]) was “Active” and the Cmax [15] was 1380 ng/mL. The inhibition (BV-2 [16]) was “Active”, the Activity (Mus musculus [17]) was “Active” and the Activity (Mus musculus [18]) was “Active”. For the same compound, the concentration at 22 min [19] was 554 ng/mL, the Activity [20] was “Not Active” and the Activity (BV-2 [21]) was “Active”. The Activity (Mus musculus [22]) was “Active”, the EC50 [23] was 23.5 µM and the Activity (Mus musculus [24]) was “Active”. For the same compound, the Activity (SH-SY5Y) was “Active”, the Tmax [25] was 1 min and the AUC(0-t) at 48 h [26] was 6070 ng·h/mL. The Activity (Mus musculus [27]) was “Active”, the Kp [28] was 2.33 and the AUCt [29] was 20051.76 ng·h/mL. The AUC(0-inf) [30] was 5650 ng·h/mL, the Activity [31] was “Non-Toxic” and the Activity [32] was “Not Active”. The Activity (Mus musculus [33]) was “Active”.
